Laboratory results published in US9795597B2, “Cyclopropylamines as LSD1 inhibitors” (GlaxoSmithKline Intellectual Property (No.2) Limited, priority 2011, dated 2017).
Counter-ions that a name gives are not always drawn.

Assays:
LSD1 = molecular target: T1, LSD1 (Homo sapiens, UniProt O60341); experiment: Biochemical assay for LSD-1 activity (luminescence, H3K4 dimethylated peptide substrate); conditions: average of two or more tests; 30 min preincubation of enzyme and compound; read-out: LSD1 PIC50 MEAN (converted)
T1 construct: made in house
Procedure: Biochemical Assay for LSD-1 Activity
The LSD-1 luminescence assay is performed in a buffer containing 25 mM Tris, pH 7.5, 50 mM potassium chloride, 0.02% heat-denatured BSA, 2 mM CHAPS and milliQ ultrapure water. […] The enzyme and test compound are allowed to incubate together for 30 minutes at room temperature. Two microliters of the substrate mix are then added to each well of the plate to initiate the reaction. The plates are covered, protected from light and allowed to incubate for two hours at room temperature. Then, 4 uL of HyPerBlu peroxide detection luminescence reagent (Lumigen/Beckman Coulter, cat# HPB-00005) is added to each well to quench the demethylase reaction and generate the peroxide-dependent luminescence signal. The plates are then incubated for 15-30 minutes in the dark at room temperature prior to being read for Luminescence using a Perkin Elmer Viewlux plate reader. Percent inhibition is calculated based on no compound and no enzyme controls, and inhibition curves are then plotted to determine PIC50 values.

MAO-B = molecular target: T2, MAO-B (Homo sapiens, UniProt P27338); experiment: Biochemical assay for MAO-B activity (FLINT, benzylamine/amplex red); conditions: average of two or more tests; 30 min preincubation of enzyme and compound; read-out: MAOB PIC50 MEAN (converted)
T2 construct: purchased Gentest-BD Biosciences 456284
T2 sequence (P27338 1-520): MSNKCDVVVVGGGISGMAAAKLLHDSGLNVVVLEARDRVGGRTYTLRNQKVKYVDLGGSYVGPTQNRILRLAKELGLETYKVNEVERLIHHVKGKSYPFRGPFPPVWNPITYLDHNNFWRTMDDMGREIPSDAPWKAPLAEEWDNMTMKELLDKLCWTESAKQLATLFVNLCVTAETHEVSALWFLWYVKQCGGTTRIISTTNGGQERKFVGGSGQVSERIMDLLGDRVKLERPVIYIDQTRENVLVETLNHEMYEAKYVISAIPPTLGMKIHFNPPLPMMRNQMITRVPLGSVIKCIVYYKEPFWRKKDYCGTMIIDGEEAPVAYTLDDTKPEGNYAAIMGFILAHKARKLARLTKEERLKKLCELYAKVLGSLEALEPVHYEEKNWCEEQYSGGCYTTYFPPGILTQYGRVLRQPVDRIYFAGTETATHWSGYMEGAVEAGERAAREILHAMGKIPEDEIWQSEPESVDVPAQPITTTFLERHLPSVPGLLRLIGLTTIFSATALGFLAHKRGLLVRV
Procedure: Biochemical Assay for MAO-B Activity
The MAO-B FLINT assay is performed in a buffer containing 50 mM potassium phospate, pH 7.4, in milliQ ultrapure water. […] The enzyme and test compound are allowed to incubate together for 30 minutes at room temperature. Five microliters of the substrate mix are then added to each well of the plate to initiate the reaction. The plates are covered, protected from light and allowed to incubate for one hour at room temperature. […] Percent inhibition is calculated based on no compound and no enzyme controls, and inhibition curves are then plotted to determine PIC50 values.

| Structure (SMILES) | IC50 (LSD1) | IC50 (MAO-B) |
| --- | --- | --- |
| CS(=O)(=O)c1ccc(CN2CCC(CN[C@@H]3C[C@H]3c3ccccc3)CC2)cc1 (relative stereo) [Example 43, trans-N-((1-(4-(Methylsulfonyl)benzyl)piperidin-4-yl)methyl)-2-phenylcyclopropanamine] | 0.00631 µM | 0.501 µM |
| c1ccc(C2C[C@@H]2NCC2CCCNCC2)cc1 (stereo in doubt) [Example 22, N-(Hexahydro-1H-azepin-4-ylmethyl)-trans-2-phenylcyclopropanamine] | 0.0794 µM | 100 µM |
| c1ccc([C@@H]2C[C@H]2NCC2CCCCC2)cc1 (relative stereo) [Example 7, trans-N-(Cyclohexylmethyl)-2-phenylcyclopropanamine] | 0.158 µM | 0.398 µM |
| O=C(O)CN1CCC(CN[C@H]2C[C@@H]2c2ccccc2)CC1 (relative stereo) [Example 27, 2-(4-(((trans-2-phenylcyclopropyl)amino)methyl)piperidin-1-yl)acetic acid] | 0.2 µM | 63.1 µM |
| Cc1noc(C)c1S(=O)(=O)N1CCC(CN[C@@H]2C[C@H]2c2ccccc2)CC1 (relative stereo) [Example 100, trans-N-((1-((3,5-dimethylisoxazol-4-yl)sulfonyl)piperidin-4-yl)methyl)-2-phenylcyclopropanamine] | 0.0794 µM | 15.8 µM |
| CC(C)(C)OC(=O)N1CCC(CN[C@@H]2C[C@H]2c2ccccc2)CC1 [Example 2, 1,1-Dimethylethyl 4-({[(1R,2S)-2-phenylcyclopropyl]amino}methyl)-1-piperidinecarboxylate] | 0.0398 µM | 0.631 µM |
| c1ccc(C2C[C@@H]2NCC2CNCCO2)cc1 (stereo in doubt) [Example 25, N-(2-Morpholinylmethyl)-trans-2-phenylcyclopropanamine] | 0.02 µM | 12.6 µM |
| c1ccc(C2C[C@@H]2NCC2CCCNC2)cc1 (stereo in doubt) [Example 16, [trans-2-Phenylcyclopropyl](3-piperidinylmethyl)amine] | 0.00794 µM | 39.8 µM |
| O=S(=O)(c1ccccc1)N1CCC(CN[C@@H]2C[C@H]2c2ccccc2)CC1 (relative stereo) [Example 13, trans-2-Phenyl-N-((1-(phenylsulfonyl)piperidin-4-yl)methyl)cyclopropanamine] | 0.0501 µM | 5.01 µM |
| OB(O)c1ccc(CN2CCC(CN[C@@H]3C[C@H]3c3ccccc3)CC2)cc1 (relative stereo) [Example 57, (4-((4-(((trans-2-phenylcyclopropyl)amino)methyl)piperidin-1-yl)methyl)phenyl)boronic acid] | 0.00794 µM | 31.6 µM |
| CC(C)(C)OC(=O)N[C@H]1CC[C@H](CN[C@@H]2C[C@H]2c2ccccc2)CC1 (relative stereo) [Example 9, 1,1-Dimethylethyl[trans-4-({[trans-2-phenylcyclopropyl]amino}methyl)cyclohexyl]carbamate] | 0.158 µM | 0.398 µM |
| N[C@H]1CC[C@H](CN[C@@H]2C[C@H]2c2ccccc2)CC1 (relative stereo) [Example 10, trans-4-({[trans-2-Phenylcyclopropyl]amino}methyl)cyclohexanamine] | 0.00794 µM | 7.94 µM |
| O=C(O)c1ccc(CN2CC[C@@H](CN[C@@H]3C[C@H]3c3ccccc3)C2)cc1 [Example 28b, 4-{[(3S)-3-({[(1R,2S)-2-Phenylcyclopropyl]amino}methyl)-1-pyrrolidinyl]methyl}benzoic acid] | 0.0794 µM | 25.1 µM |
| O=C(O)c1ccc(CCCN2CCC(CN[C@@H]3C[C@H]3c3ccccc3)CC2)cc1 [Example 30, 4-{3-[4-({[(1R,2S)-2-Phenylcyclopropyl]amino}methyl)-1-piperidinyl]propyl}benzoic acid 2 HCl] | 0.0126 µM | 31.6 µM |
| O=C(O)c1ccc(CCN2CCC(CN[C@@H]3C[C@H]3c3ccccc3)CC2)cc1 [Example 123, 4-(2-(4-((((1R,2S)-2-phenylcyclopropyl)amino)methyl)piperidin-1-yl)ethyl)benzoic acid] | 0.0316 µM | 20 µM |
| CC(C)(C)OC(=O)N1CCC(CN[C@H]2C[C@@H]2c2ccccc2)CC1 [Example 3, 1,1-Dimethylethyl 4-({[(1S,2R)-2-phenylcyclopropyl]amino}methyl)-1-piperidinecarboxylate] | 0.631 µM | 7.94 µM |
| O=C(c1ccccc1)N1CCC(CN[C@@H]2C[C@H]2c2ccccc2)CC1 (relative stereo) [Example 14, Phenyl(4-(((trans-2-phenylcyclopropyl)amino)methyl)piperidin-1-yl)methanone] | 0.126 µM | 39.8 µM |
| O=C(O)c1ccc(CN2CCC(CN[C@@H]3C[C@H]3c3ccccc3)CC2)cc1 [Example 29, 4-((4-((((1R,2S)-2-phenylcyclopropyl)amino)methyl)piperidin-1-yl)methyl)benzoic acid] | 0.158 µM | 25.1 µM |
| CN1CCC(CN[C@@H]2C[C@H]2c2ccccc2)CC1 (relative stereo) [Example 20, [(1-Methyl-4-piperidinyl)methyl][trans-2-phenylcyclopropyl]amine] | 0.00631 µM | 25.1 µM |
| CC(N[C@H]1CC1c1ccccc1)C1CCNCC1 (stereo in doubt) [Example 24, [trans-2-Phenylcyclopropyl][1-(4-piperidinyl)ethyl]amine] | 0.01 µM | 63.1 µM |
| O=C(O)c1ccc(CN2CCC(CN[C@H]3C[C@@H]3c3ccccc3)CC2)cc1 (relative stereo) [Example 26, 4-((4-(((trans-2-phenylcyclopropyl)amino)methyl)piperidin-1-yl)methyl)benzoic acid] | 0.2 µM | 50.1 µM |
| O=C(O)CCN1CC[C@H](CN[C@@H]2C[C@H]2c2ccccc2)C1 [Example 150, 3-((R)-3-((((1R,2S)-2-Phenylcyclopropyl)amino)methyl)pyrrolidin-1-yl)propanoic acid] | 0.0251 µM | 79.4 µM |
| OCCN1CCC(CN[C@@H]2C[C@H]2c2ccccc2)CC1 (relative stereo) [Example 11, 2-(4-(((trans-2-Phenylcyclopropyl)amino)methyl)piperidin-1-yl)ethanol] | 0.0126 µM | 31.6 µM |
| c1ccc([C@@H]2C[C@H]2NCC2CCN(Cc3ccncc3)CC2)cc1 (relative stereo) [Example 33, trans-2-Phenyl-N-((1-(pyridin-4-ylmethyl)piperidin-4-yl)methyl)cyclopropanamine] | 0.0158 µM | 50.1 µM |
| O=S(=O)(Nc1ccc([C@@H]2C[C@H]2NCC2CCNCC2)cc1)c1ccccc1 (relative stereo) [Example 91, N-(4-((trans)-2-((piperidin-4-ylmethyl)amino)cyclopropyl)phenyl)benzenesulfonamide] | 0.00631 µM | 15.8 µM |
| O=C(OCc1ccccc1)N1CCC(CN[C@@H]2C[C@H]2c2ccccc2)CC1 (relative stereo) [Example 18, Benzyl 4-(((trans-2-phenylcyclopropyl)amino)methyl)piperidine-1-carboxylate] | 0.0316 µM | 0.631 µM |
| Cc1cc(CN2CCC(CN[C@@H]3C[C@H]3c3ccccc3)CC2)no1 (relative stereo) [Example 47, trans-N-((1-((5-Methylisoxazol-3-yl)methyl)piperidin-4-yl)methyl)-2-phenylcyclopropanamine] | 0.1 µM | 15.8 µM |
| c1ccc(CN2CCC(CN[C@@H]3C[C@H]3c3ccccc3)CC2)cc1 (relative stereo) [Example 8, [trans-2-Phenylcyclopropyl]{[1-(phenylmethyl)-4-piperidinyl]methyl}amine] | 0.00631 µM | 25.1 µM |
| Fc1ccccc1C[N+]1(Cc2ccccc2F)CCC(CN[C@@H]2C[C@H]2c2ccccc2)CC1 (relative stereo) [Example 35, 1,1-Bis(2-fluorobenzyl)-4-(((trans-2-phenylcyclopropyl)amino)methyl)piperidin-1-ium chloride] | 0.0158 µM | 31.6 µM |
| CN(CC1CCNCC1)[C@H]1CC1c1ccccc1 (some centres unmarked) [Example 19] |  | 31.6 µM |
